How the values were obtained:
[1] = tested on: TLR7; assay: In vivo mouse TLR7 PD model (gardiquimod challenge, plasma IL-6); details: oral
Protocol: (§1) In Vivo Mouse TLR7 and TLR9 PD Model:
(§2) Adult male C57BL/6 mice were used for the experiments. Mice (7 to 10 per group) were randomized into different treatment groups based on body weight. Mice from the respective treatment groups were administered orally with vehicle or test compound. Thirty min after the oral administration of vehicle or test compound, mice were challenged with intraperitoneal injection of gardiquimod for TLR7 PD model and CpG-ODN for TLR9 PD model. Ninety minutes after gardiquimod injection and 120 minutes after CpG-ODN injection, mice were bled under isoflurane anaesthesia and plasma IL-6 level was estimated by using commercially available ELISA kit (BD Biosciences). At the end of experiment, mean cytokine data was plotted and one way ANOVA with Dunnett's test was performed to calculate the significance of test compound treated group vs. vehicle control group. Percent inhibition of cytokine induction was calculated for test compound treated group vs vehicle control group.

[2] = tested on: TLR9; assay: In vivo mouse TLR9 PD model (CpG-ODN challenge, plasma IL-6); details: oral
Protocol: as §1, §2

[3] = tested on: Imiquimod-induced psoriasis; assay: Imiquimod induced psoriasis in mice; format: in vivo, mouse; details: male C57BL/6 mice, vs vehicle control
Protocol: Imiquimod Induced Psoriasis:
Male C57BL/6 mice of 8-9 week age were used to evaluate the impact of TLR7/8/9 inhibitors on Imiquimod-induced psoriasis. Mice (7 to 10 per group) were randomized into different treatment groups based on body weight. Mice from the respective treatment groups were treated orally, once daily for 6 days with vehicle or test compound. Psoriasis was induced by application of imiquimod cream on the shaved back region of the mice everyday for 6 days. Disease severity was monitored daily by recording of skin thickness, erythema and scaling. A cumulative disease score was also calculated to reflect the impact on the overall severity of inflammation in this model. At the end of experiment, all mice were euthanized by CO2 asphyxiation and skin samples were subjected for histology. At the end of experiment, one way ANOVA with Dunnett's test was performed to calculate the significance of test compound treated group vs. vehicle control group. Overall percent reduction in imiquimod induced psoriasis was calculated for test compound treated group vs vehicle control group.

[4] = 0.1 mg/kg orally once daily for 6 days
[5] = 1 mg/kg orally once daily for 6 days
[6] = 10 mg/kg orally once daily for 6 days
[7] = 30 mg/kg orally once daily for 6 days

## COc1ccc(-c2[nH]c3ccc(C4CCN(C(=O)CN(C)C)CC4)cc3c2C(C)C)cc1OC [Example 209, 1-(4-(2-(3,4-dimethoxyphenyl)-3-isopropyl-1H-indol-5-yl)piperidin-1-yl)-2-(dimethylamino)ethan-1-one]
[1]; dose 0.001 mg/kg
  % inhibition of IL6: 11%
[1]; dose 0.01 mg/kg
  % inhibition of IL6: 21%
[1]; dose 0.1 mg/kg
  % inhibition of IL6: 61%
[1]; dose 1 mg/kg
  % inhibition of IL6: 86%
[2]; dose 1 mg/kg
  % inhibition of IL6: 29%
[2]; dose 10 mg/kg
  % inhibition of IL6: 37%
[2]; dose 30 mg/kg
  % inhibition of IL6: 37%
[2]; dose 100 mg/kg
  % inhibition of IL6: 51%
[3]; [4]
  % inhibition Cumulative score: 3%
  % inhibition Erythema: 3%
  % inhibition Scaling: 13%
  % inhibition Skin Thickness: 0%
[3]; [5]
  % inhibition Cumulative score: 27%
  % inhibition Erythema: 26%
  % inhibition Scaling: 38%
  % inhibition Skin Thickness: 18%
[3]; [6]
  % inhibition Cumulative score: 40%
  % inhibition Erythema: 41%
  % inhibition Scaling: 50%
  % inhibition Skin Thickness: 29%
[3]; [7]
  % inhibition Cumulative score: 49%
  % inhibition Erythema: 53%
  % inhibition Scaling: 63%
  % inhibition Skin Thickness: 32%
